# Test results as given in patent US7767398B2, “Means and methods for diagnosing and treating affective disorders” (Affectis Pharmaceuticals AG, priority 2003, dated 2010).
# How the values were obtained:
# mice = experiment: Porsolt's forced swim test; assay type: in vivo, mouse; conditions: 50 μM BzATP, 1 μl each side intrahippocampal, 24 hours after injection, DBA/2OIa mice
# Experimental: Further validation of role of P2X7R in affective disorders was performed by examining its expression pattern in response to stress and treatment with antidepressant drugs. […] In parallel, a control group of mice was given vehicle solution (i.e. without paroxetine) using the same treatment regiment while a second control group of mice was left undisturbed and stress-free (i.e. untreated) during the same period of the experiments. At the end of the long-term treatment, part of the mice of each experimental group were tested in the dark/light box (test of anxiety behaviour) and in the Porsolt's forced swim test (test of depressive-like behaviour) to confirm the effectiveness of the treatment (FIG. 5). […] The other part of the experimental groups (i.e. mice without test experience) were decapitated, brains rapidly removed and frozen at −80° C. until usage.
# The effects of P2X7R inhibition on depressive-like behaviour was assessed 24 hours and 48 hours after infusion of siRNA, control or vehicle according to the standard test paradigm, the Porsolt's forced swim test (Porsolt et al., Arch. Int. Pharmacodym. 229 (1977), 327-336; Porsolt, Rev. Neurosci. 11 (2000), 53-58). […] Compared to vehicle application, no influence of control double stranded RNA (5′-[…]-3′) on floating behaviour (passive stress coping) was detected. […] This interpretation becomes moreover evident when the effects of antidepressants on passive stress coping behaviour in the forced swim test are visualized (FIG. 5). Passive stress coping behaviour increased after acute intrahippocampal injection (bilateral, dentate gyrus) of siRNA targeting P2X7R. The Porsolt's forced swim test is a standard test used to assess the effectiveness of antidepressants and it has been proven by many studies that the test is selectively sensitive for these effects, given that the right animal model is used. The paradigm has been widely used to test pharmaceutical compounds and to validate animal models of depression, which show an increase in passive behaviour as do the mice where P2X7R has been inhibited (siRNA).
# The forced swim test is a standard test that measures primary stress-induced reductions in avoidance or escape, termed behavioural despair. The test is used to determine the effectiveness of antidepressants, test new pharmaceutical compounds and validate animal models of depression (Porsolt et al., Arch. Int. Pharmacodym. 229 (1977), 327-336; Porsolt, Rev. Neurosci. 11 (2000), 53-58; Rénéric et al., Behav. Brain Res. 136 (2002), 521-532; Page et al., Psychopharmacology 165 (2003), 194-201; Kelliher et al., Psychoneuroendocrinology 28 (2003), 332-347). The test consists of placing a mouse for a period of 5 minutes into a glass cylinder containing water. Under such circumstances, the mouse cannot touch the bottom of the cylinder and is thus forced to swim. Time, latency and frequency of struggling versus floating are scored as behavioural parameters. […] Increased struggling (i.e. active attempts to escape) indicates active coping behaviour that can be interpreted as an improvement of depression-like symptoms. For example, treatment with serotonergic antidepressants reduce the total time spent floating (Borsini, Neurosci. Biobehav. Rev. 19 (1995), 377-395; Redrobe and Bourin, Psychopharmacology 138 (1998), 198-206, and in parallel increases the time of active behaviour (i.e. swimming or struggling; Lucki et al., Psychopharmacology 155 (2001), 315-322).
# The behaviour of individual mice was assessed using the Porsolt's forced swim test 24 hours after injection of vehicle solution, KN-62, or oATP. A pre-exposure of 5 minutes to the test was performed 15-17 minutes after administration of vehicle, KN-62, or oATP. A description of the Porsolt's forced swim test is given in example 9. […]
# human P2X7R = target: T1, human P2X7R (Homo sapiens, UniProt Q99572); experiment: Calcium entry in HT-22 cells overexpressing human P2X7R (Fluo-4 AM); assay type: cell-based; conditions: 20 μM BzATP or 50 μM tenidap
# T1 construct: expressed in transfected cells
# T1 sequence (Q99572 1-595): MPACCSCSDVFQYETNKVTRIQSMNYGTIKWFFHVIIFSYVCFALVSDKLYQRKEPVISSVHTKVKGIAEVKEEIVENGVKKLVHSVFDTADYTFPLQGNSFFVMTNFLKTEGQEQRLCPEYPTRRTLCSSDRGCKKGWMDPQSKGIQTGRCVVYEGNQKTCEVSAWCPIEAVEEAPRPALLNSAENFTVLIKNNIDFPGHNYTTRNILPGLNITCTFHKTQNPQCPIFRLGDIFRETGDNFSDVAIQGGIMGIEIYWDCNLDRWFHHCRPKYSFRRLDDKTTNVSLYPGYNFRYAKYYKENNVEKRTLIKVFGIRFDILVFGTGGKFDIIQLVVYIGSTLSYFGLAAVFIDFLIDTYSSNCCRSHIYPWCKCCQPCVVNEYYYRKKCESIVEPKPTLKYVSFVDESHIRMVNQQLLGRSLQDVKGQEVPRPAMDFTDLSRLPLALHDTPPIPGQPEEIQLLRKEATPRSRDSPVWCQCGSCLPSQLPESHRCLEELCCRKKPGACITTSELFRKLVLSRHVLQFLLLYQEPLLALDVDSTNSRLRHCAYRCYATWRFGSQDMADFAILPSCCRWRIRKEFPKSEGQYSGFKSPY
# Excerpt: Yet another method for identifying P2X7R agonists was devised by generating a immortalised mouse cell line that overexpresses the human P2X7R gene under the control of the human cytomegalovirus (CMV) early promoter/enhancer region. The human P2X7R cDNA was inserted into the pcDNA3.1 vector (Invitrogen) and transfected into the mouse hippocampal cell line HT-22 using Lipofectamine (Invitrogen) according to the manufacturer's specifications. One day after transfection, culture medium containing 500 μg/ml G418 was added to the cells. Resistant clones were separately isolated and cultured 14 days after applying the selection medium.
# The agonistic activity of a compound was evaluated by measuring calcium entry in the cells that overexpress the human P2X7R. Cells were cultured in 96 well plates and incubated at 37° C. with 5% C02 DMEM with 10% foetal calf serum (Gibco) until they reached confluence. Cells were then loaded for one hour with 10 μM of Fluo4 AM (Molecular Probes). Fluo-4 AM is a fluorescent dye that binds to intracellular calcium. […] Agonist activity was detected by measuring an increase in calcium influx which results in increased binding to Fluo4 AM and increased fluorescence. Changes in fluorescence signal are measured using a Fluostar Optima plate reader (BMG biotech). […] Thus, both compound stimulated the activity of P2X7R which results in an influx of ions into the cells.
substance,measurement,setting,value
2′-3′-O-(4-Benzoylbenzoyl)adenosine 5′-triphosphate [BzATP],"passive behaviour (time, frequency, latency of floating) in the forced swim test",mice; latency and frequency of floating statistically significant,decrease
same,"active escape attempts (time, frequency, latency of struggling) in the forced swim test",mice; time struggling statistically significant,increase
same,calcium influx (Fluo-4 AM fluorescence intensity),human P2X7R,rapid increase in fluorescence intensity
